Source: patent US20210347727A1 (BLADE THERAPEUTICS, INC., priority 2017, published 2021)

How the values were obtained:
Human Calpain 1/NS1 = target: T1, Human Calpain 1/NS1 (Homo sapiens, UniProt P07384); experiment: Biochemical inhibition of calpain 1, continuous fluorescence (FRET substrate) assay; details: mean; read-out: Human Calpain 1/NS1 IC50 (nM)_MEAN
T1 sequence (P07384 1-714): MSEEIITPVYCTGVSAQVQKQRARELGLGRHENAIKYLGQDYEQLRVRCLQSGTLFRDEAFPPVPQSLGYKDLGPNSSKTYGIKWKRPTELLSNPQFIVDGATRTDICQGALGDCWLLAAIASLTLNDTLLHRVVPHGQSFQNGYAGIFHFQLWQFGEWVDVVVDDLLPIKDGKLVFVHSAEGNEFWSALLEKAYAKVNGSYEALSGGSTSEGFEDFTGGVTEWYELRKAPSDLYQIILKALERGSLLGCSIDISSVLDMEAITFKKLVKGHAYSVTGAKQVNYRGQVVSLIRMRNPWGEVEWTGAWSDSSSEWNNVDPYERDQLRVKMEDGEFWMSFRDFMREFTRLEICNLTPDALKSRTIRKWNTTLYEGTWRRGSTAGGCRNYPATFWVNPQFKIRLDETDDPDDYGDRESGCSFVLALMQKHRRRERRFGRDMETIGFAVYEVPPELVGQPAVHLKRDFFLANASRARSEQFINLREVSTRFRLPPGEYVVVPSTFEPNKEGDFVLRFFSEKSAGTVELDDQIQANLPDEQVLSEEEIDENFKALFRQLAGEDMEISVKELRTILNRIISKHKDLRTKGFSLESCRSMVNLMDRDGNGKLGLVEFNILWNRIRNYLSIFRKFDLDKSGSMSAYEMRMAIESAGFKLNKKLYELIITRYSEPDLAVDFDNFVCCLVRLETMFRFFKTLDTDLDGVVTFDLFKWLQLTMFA
T1 sequence (P04632 1-268 partner): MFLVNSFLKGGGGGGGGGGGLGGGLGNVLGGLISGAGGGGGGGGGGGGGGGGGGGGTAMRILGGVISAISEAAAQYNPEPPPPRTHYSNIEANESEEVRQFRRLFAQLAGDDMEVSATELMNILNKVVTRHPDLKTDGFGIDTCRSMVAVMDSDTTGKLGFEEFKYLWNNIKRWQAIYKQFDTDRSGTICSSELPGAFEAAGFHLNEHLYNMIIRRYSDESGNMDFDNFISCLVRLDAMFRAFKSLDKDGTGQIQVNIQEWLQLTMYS
Description: (§1) Calpain 1, 2, and 9 activity and inhibition thereof are assessed by means of a continuous fluorescence assay. The SensoLyte 520 Calpain substrate (Anaspec Inc) is optimized for detecting calpain activity. This substrate contains a novel internally quenched 5-FAM/QXL™ 520 FRET pair. Calpains 1, 2, and 9 cleave the FRET substrate into two separate fragments resulting in an increase of 5-FAM fluorescence that is proportional to calpain activity.
(§2) Assays are typically setup in black 384-well plates using automated liquid handling as follows. Calpain assay base buffer typically contains 50 mM Tris, pH 7.5, 100 mM NaCl and 1 mM DTT. Inhibitors are serially diluted in DMSO and used to setup 2× mixtures with calpains in the aforementioned buffer. After incubation at ambient temperature (25 C), the reaction is initiated by adding a 2× mix of the fluorescent peptide substrate and CaCl2 (required for in-situ calpain activation) in the same buffer. Reaction progress curve data are typically collected for 10 min using excitation/emission wavelengths of 490 nm/520 nm on SpectraMax i3x or the FLIPR-Tetra plate readers (Molecular Devices Inc). Reaction rates were calculated from progress curve slopes typically over 1-5 min. Dose response curves (rate vs. log inhibitor concentration) were typically fit to a 4-parameter logistic function to extract IC50 values.

Human Calpain 2/NS1 = target: T2, Human Calpain 2/NS1 (Homo sapiens, UniProt P17655); experiment: Biochemical inhibition of calpain 2, continuous fluorescence (FRET substrate) assay; details: mean; read-out: Human Calpain 2/NS1 1C50 [sic] (nM)_MEAN
T2 sequence (P17655 1-700): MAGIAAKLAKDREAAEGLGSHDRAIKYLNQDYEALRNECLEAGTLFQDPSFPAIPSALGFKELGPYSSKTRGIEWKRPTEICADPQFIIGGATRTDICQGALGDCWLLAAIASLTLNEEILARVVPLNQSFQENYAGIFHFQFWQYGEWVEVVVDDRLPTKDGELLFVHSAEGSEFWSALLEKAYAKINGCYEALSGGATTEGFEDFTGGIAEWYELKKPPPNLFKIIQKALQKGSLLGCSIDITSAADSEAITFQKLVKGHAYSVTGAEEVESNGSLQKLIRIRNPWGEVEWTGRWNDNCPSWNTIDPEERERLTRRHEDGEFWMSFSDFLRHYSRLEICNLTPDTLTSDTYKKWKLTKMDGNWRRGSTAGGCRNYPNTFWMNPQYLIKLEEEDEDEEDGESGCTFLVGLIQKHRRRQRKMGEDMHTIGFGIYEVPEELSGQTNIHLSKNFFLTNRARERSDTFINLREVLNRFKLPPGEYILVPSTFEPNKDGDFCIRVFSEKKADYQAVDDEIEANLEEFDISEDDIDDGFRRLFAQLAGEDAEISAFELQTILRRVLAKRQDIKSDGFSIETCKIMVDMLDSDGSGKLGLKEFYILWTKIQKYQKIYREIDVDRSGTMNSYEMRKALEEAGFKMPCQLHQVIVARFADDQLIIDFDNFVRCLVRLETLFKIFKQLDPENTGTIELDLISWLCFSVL
T2 sequence (P04632 1-268 partner): T1 sequence (P04632 1-268 partner)
Description: as §1, §2

Human Calpain 9/NS1 = target: T3, Human Calpain 9/NS1 (Homo sapiens, UniProt O14815); experiment: Biochemical inhibition of calpain 9, continuous fluorescence (FRET substrate) assay; details: mean; read-out: Human Calpain 9/NS1 IC50 (nM)_MEAN
T3 sequence (O14815 1-690): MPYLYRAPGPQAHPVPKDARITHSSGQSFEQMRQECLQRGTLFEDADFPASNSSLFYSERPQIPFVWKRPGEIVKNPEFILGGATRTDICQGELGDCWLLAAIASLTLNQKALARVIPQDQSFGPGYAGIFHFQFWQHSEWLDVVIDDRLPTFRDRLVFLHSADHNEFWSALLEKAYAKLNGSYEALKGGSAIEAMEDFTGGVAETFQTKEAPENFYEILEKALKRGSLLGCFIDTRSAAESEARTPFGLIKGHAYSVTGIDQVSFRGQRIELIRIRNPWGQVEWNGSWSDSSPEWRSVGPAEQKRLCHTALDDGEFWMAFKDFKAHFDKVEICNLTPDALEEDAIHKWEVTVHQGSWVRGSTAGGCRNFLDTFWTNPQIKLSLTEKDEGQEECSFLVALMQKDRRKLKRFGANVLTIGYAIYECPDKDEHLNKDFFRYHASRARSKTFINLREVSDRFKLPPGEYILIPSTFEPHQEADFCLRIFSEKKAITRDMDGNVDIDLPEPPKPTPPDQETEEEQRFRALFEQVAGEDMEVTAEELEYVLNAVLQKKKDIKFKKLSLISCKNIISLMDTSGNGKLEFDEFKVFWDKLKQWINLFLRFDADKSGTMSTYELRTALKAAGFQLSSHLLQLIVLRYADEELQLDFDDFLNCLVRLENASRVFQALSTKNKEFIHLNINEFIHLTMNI
T3 sequence (P04632 1-268 partner): T1 sequence (P04632 1-268 partner)
Description: as §1, §2

[1] = system: calpain activity in SH-SY5Y cells; experiment: SH-SY5Y cellular calpain activity, Suc-LLVY-AMC fluorescence assay; type: cell-based; details: Suc-LLVY-AMC substrate
Description: Calpain activity in SH-SY5Y cells and inhibition thereof were assessed by means of a homogeneous, fluorescence assay that uses the cell-permeable and pro-fluorescent calpain substrate Suc-LLVY-AMC (Sigma-Aldrich Inc). Upon intracellular calpain cleavage of Suc-LLVY-AMC, fluorescent amino-methyl-coumarin (AMC) is released into the media resulting in a continuous increase in fluorescence signal that is proportional to intra-cellular calpain activity.
Assays were typically setup by seeding SH-SY5Y cells in black 384-well plates at 40 k/per well in RPMI-1640 containing 1% serum followed by 37 C overnight incubation. Next morning, cells were pre-incubated for 30 min with serially diluted compounds followed by addition of 100 uM of Suc-LLVY-AMC substrate. The continuous increase in AMC fluorescence is monitored using a FLIPR, Tetra plate reader (Molecular Devices Inc) and slopes measured to report calpain activity. Dose response curves (slopes vs. log inhibitor concentration) were typically fit to a 4-parameter logistic function to extract IC50 values.

[2] = system: calpain activity in SH-SY5Y cells (Spectrin); experiment: SH-SY5Y Spectrin cellular calpain inhibition; type: cell-based

SMILES | IC50 (Human Calpain 1/NS1) [nM] | IC50 (Human Calpain 2/NS1) [nM] | IC50 (Human Calpain 9/NS1) [nM] | IC50 [1] [µM] | IC50 [2] [µM]
NC(=O)C(=O)C(Cc1ccccc1)NC(=O)N1c2ccccc2Oc2ccccc21 (stereo not drawn) [Compound 6, N-(4-AMINO-3,4-DIOXO-1-PHENYLBUTAN-2-YL)-10H-PHENOXAZINE-10-CARBOXAMIDE] | < 3000 | < 3000 | > 10000 | > 25 | –
NC(=O)C(=O)C(Cc1ccccc1)NC(=O)C1c2ccccc2-c2ccccc21 (stereo not drawn) [Compound 10, N-(4-AMINO-3,4-DIOXO-1-PHENYLBUTAN-2-YL)-9H-FLUORENE-9-CARBOXAMIDE] | > 10000 | 3000 to 10000 | > 10000 | 10 to 25 | –
COc1ccc(Cl)cc1C(=O)N[C@@H](Cc1ccccc1)C(=O)C(N)=O [Compound 17, (S)—N-(4-AMINO-3,4-DIOXO-1-PHENYLBUTAN-2-YL)-5-CHLORO-2-METHOXYBENZAMIDE] | < 3000 | < 3000 | < 3000 | < 10 | –
NC(=O)C(=O)[C@H](Cc1ccccc1)NC(=O)c1c(C(F)(F)F)cccc1C(F)(F)F [Compound 20, (S)—N-(4-AMINO-3,4-DIOXO-1-PHENYLBUTAN-2-YL)-2,6-BIS(TRIFLUOROMETHYL)BENZAMIDE] | < 3000 | 3000 to 10000 | < 3000 | 10 to 25 | –
NC(=O)C(=O)[C@H](Cc1ccccc1)NC(=O)c1c(Cl)cccc1-c1ccccc1 [Compound 21, (S)—N-(4-AMINO-3,4-DIOXO-1-PHENYLBUTAN-2-YL)-3-CHLORO-[1,1′-BIPHENYL]-2-CARBOXAMIDE] | < 3000 | < 3000 | < 3000 | > 25 | –
NC(=O)C(=O)[C@H](Cc1ccccc1)NC(=O)c1ccc(F)cc1 [Compound 4, (S)—N-(4-AMINO-3,4-DIOXO-1-PHENYLBUTAN-2-YL)-4-FLUOROBENZAMIDE] | > 10000 | 3000 to 10000 | 3000 to 10000 | 10 to 25 | –
NC(=O)C(=O)[C@H](Cc1ccccc1)NC(=O)c1ccc(-c2ccccc2)cc1 [Compound 23, (S)—N-(4-AMINO-3,4-DIOXO-1-PHENYLBUTAN-2-YL)-[1,1′-BIPHENYL]-4-CARBOXAMIDE] | < 3000 | > 10000 | > 10000 | < 10 | –
NC(=O)C(=O)C(Cc1ccccc1)NC(=O)n1c2ccccc2c2ccccc21 (stereo not drawn) [Compound 8, N-(4-AMINO-3,4-DIOXO-1-PHENYLBUTAN-2-YL)-9H-CARBAZOLE-9-CARBOXAMIDE] | 3000 to 10000 | > 10000 | > 10000 | > 25 | –
Cc1cccc(C(=O)NC(Cc2ccccc2)C(=O)C(N)=O)c1C (stereo not drawn) [Compound 26, N-(4-AMINO-3,4-DIOXO-1-PHENYLBUTAN-2-YL)-2,3-DIMETHYLBENZAMIDE] | < 3000 | < 3000 | < 3000 | < 10 | –
NC(=O)C(=O)C(Cc1ccccc1)NC(=O)c1cccc(F)c1 (stereo not drawn) [Compound 25, N-(4-AMINO-3,4-DIOXO-1-PHENYLBUTAN-2-YL)-3-FLUOROBENZAMIDE] | < 3000 | < 3000 | < 3000 | < 10 | –

Second part, the compound after the results:

IC50 (Human Calpain 1/NS1) [nM] | IC50 (Human Calpain 2/NS1) [nM] | IC50 (Human Calpain 9/NS1) [nM] | IC50 [1] [µM] | IC50 [2] [µM] | SMILES
3000 to 10000 | < 3000 | < 3000 | – | 10 to 25 | O=CC(Cc1ccccc1)NC(=O)c1c(Cl)cccc1Br (stereo not drawn) [Compound 41, 2-BROMO-6-CHLORO-N-(1-OXO-3-PHENYLPROPAN-2-YL)BENZAMIDE]
< 3000 | < 3000 | < 3000 | < 10 | – | O=C(NC1CC1)C(=O)[C@H](Cc1ccccc1)NC(=O)c1c(Cl)cccc1Cl [Compound 2, (S)-2,6-DICHLORO-N-(4-(CYCLOPROPYLAMINO)-3,4-DIOXO-1-PHENYLBUTAN-2-YL)BENZAMIDE]
> 10000 | > 10000 | 3000 to 10000 | > 25 | – | COc1cccc(OC)c1C(=O)N[C@@H](Cc1ccccc1)C(=O)C(N)=O [Compound 18, (S)—N-(4-AMINO-3,4-DIOXO-1-PHENYLBUTAN-2-YL)-2,6-DIMETHOXYBENZAMIDE]
< 3000 | < 3000 | < 3000 | > 25 | – | NC(=O)C(=O)[C@H](Cc1ccccc1)NC(=O)c1c(Cl)cccc1C(F)(F)F [Compound 19, (S)—N-(4-AMINO-3,4-DIOXO-1-PHENYLBUTAN-2-YL)-2-CHLORO-6-(TRIFLUOROMETHYL)BENZAMIDE]
< 3000 | < 3000 | < 3000 | < 10 | – | NC(=O)C(=O)[C@H](Cc1ccccc1)NC(=O)c1ccccc1Br [Compound 36, (S)—N-(4-AMINO-3,4-DIOXO-1-PHENYLBUTAN-2-YL)-2-BROMOBENZAMIDE]
